# Data published in US9371294B2, “Cycloalkenyl aryl derivatives for CETP inhibitor” (CHONG KUN DANG PHARMACEUTICAL CORP., priority 2011, dated 2016).
# pIC50: −log10 of the molar value.
# Molecular target: T1, cholesteryl ester transfer protein (Homo sapiens, UniProt P11597)
# T1 construct: As a source of cholesteryl ester transfer protein, plasma from healthy humans was used; from tissue; host or cells: plasma from healthy humans
# T1 sequence (P11597 18-493): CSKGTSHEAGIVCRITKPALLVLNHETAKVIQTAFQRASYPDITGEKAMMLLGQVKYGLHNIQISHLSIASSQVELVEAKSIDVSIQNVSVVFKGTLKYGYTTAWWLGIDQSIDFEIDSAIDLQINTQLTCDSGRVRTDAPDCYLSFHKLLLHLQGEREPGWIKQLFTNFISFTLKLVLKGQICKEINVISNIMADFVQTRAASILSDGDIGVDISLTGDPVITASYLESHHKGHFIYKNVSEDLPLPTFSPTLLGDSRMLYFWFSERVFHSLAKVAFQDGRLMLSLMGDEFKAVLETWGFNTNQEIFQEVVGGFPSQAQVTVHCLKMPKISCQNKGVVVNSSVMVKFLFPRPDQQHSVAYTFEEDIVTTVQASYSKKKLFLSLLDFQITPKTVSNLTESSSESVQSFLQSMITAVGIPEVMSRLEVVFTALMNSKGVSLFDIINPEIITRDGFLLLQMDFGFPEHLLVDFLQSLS
# Test: In vitro test for the ability to inhibit cholesteryl ester transfer
# Type: biochemical
# Conditions: [3H]-cholesteryl oleate transfer from rHDL-agarose to LDL; human plasma as CETP source; 37° C.; 16-10000 nM, duplicate
# Description: In Vitro Test for the Ability to Inhibit Cholesteryl Ester Transfer
# 1. Preparation of Cholesteryl Ester Donor
# In order to prepare a cholesteryl ester donor to be used in the test, a radiolabeled recombinant HDL containing [^3H]-cholesteryl oleate (GE healthcare, TRK886, 3.5 μCi/mg of apoA-1) and apoA-1 was synthesized. Then, rHDL-agarose obtained by immobilizing the recombinant HDL with CNBr-activated Sepharose 4B resin (Amersham Biosciences, Sweden) was used in the test.
# 2. Cholesteryl Ester Transfer Test
# As a source of cholesteryl ester transfer protein, plasma from healthy humans was used, and as cholesteryl ester receptor, LDL from healthy humans was used. Each of test compounds was added to be final concentrations of 16, 80, 400, 2000 and 10000 nM and tested in duplicate. In order to test cholesteryl ester transfer, 20 μl of plasma, 50 μl of LDL (0.25 mg/ml) and 50 μl of rHDL-agarose (0.25 mg/ml) were mixed with each other, and a solution of each test compound was added thereto and reacted thereto at 37° C. Then, the reaction solution was centrifuged at 4° C. for 3 minutes, thereby the reaction was stopped. 150 μl of the supernatant was transferred into a 96-well plate for radioactivity measurement, and the radioactivity thereof was measured with a beta-ray detector.
# 3. Statistical Processing
# The ratio of [^3H]-cholesteryl oleate transferred from HDL to LDL was determined, and based on the determined ratio, the IC50 value of each compound was determined using GraphPad Prism 5.0.
row,Compound,pIC50
1,"COc1ccc(NS(=O)(=O)C(F)(F)F)cc1C1=C(CN2C(=O)O[C@H](c3cc(C(F)(F)F)cc(C(F)(F)F)c3)[C@@H]2C)CC(C)(C)CC1 [Compound 137, N-(3-(2-(((4S,5R)-5-(3,5-bis(trifluoromethyl)phenyl)-4-methyl-2-oxooxazolidin-3-yl)methyl)-4,4-dimethylcyclohex-1-enyl)-4-methoxyphenyl)trifluoromethanesulfonamide]",7.10
2,"COc1ccc(C(O)(C(F)(F)F)C(F)(F)F)cc1C1=C(CN2C(=O)O[C@H](c3cc(C(F)(F)F)cc(C(F)(F)F)c3)[C@@H]2C)CC(C)(C)CC1 [Compound 181, (4S,5R)-5-(3,5-bis(trifluoromethyl)phenyl)-3-((2-(5-(1,1,1,3,3,3-hexafluoro-2-hydroxypropan-2-yl)-2-methoxyphenyl)-5,5-dimethylcyclohex-1-enyl)methyl)-4-methyloxazolidin-2-one]",7.30
3,"COc1ccc(C(OC)(C(F)(F)F)C(F)(F)F)cc1C1=C(CN2C(=O)O[C@H](c3cc(C(F)(F)F)cc(C(F)(F)F)c3)[C@@H]2C)CC(C)(C)CC1 [Compound 182, (4S,5R)-5-(3,5-bis(trifluoromethyl)phenyl)-3-((2-(5-(1,1,1,3,3,3-hexafluoro-2-methoxypropan-2-yl)-2-methoxyphenyl)-5,5-dimethylcyclohex-1-enyl)methyl)-4-methyloxazolidin-2-one]",7.30
4,"COc1ccc(C2=NCCO2)cc1C1=C(CN2C(=O)O[C@H](c3cc(C(F)(F)F)cc(C(F)(F)F)c3)[C@@H]2C)CC(C)(C)CC1 [Compound 185, (4S,5R)-5-(3,5-bis(trifluoromethyl)phenyl)-3-((2-(5-(4,5-dihydrooxazol-2-yl)-2-methoxyphenyl)-5,5-dimethylcyclohex-1-enyl)methyl)-4-methyloxazolidin-2-one]",6.74
5,"COc1ccc(C2=N[C@H](C(C)C)CO2)cc1C1=C(CN2C(=O)O[C@H](c3cc(C(F)(F)F)cc(C(F)(F)F)c3)[C@@H]2C)CC(C)(C)CC1 [Compound 188, (4S,5R)-5-(3,5-bis(trifluoromethyl)phenyl)-3-((2-(5-((R)-4-isopropyl-4,5-dihydrooxazol-2-yl)-2-methoxyphenyl)-5,5-dimethylcyclohex-1-enyl)methyl)-4-methyloxazolidin-2-one]",6.92
6,"COc1ccc(C2(C#N)CC2)cc1C1=C(CN2C(=O)O[C@H](c3cc(C(F)(F)F)cc(C(F)(F)F)c3)[C@@H]2C)CC(C)(C)CC1 [Compound 189, 1-(3-(2-(((4S,5R)-5-(3,5-bis(trifluoromethyl)phenyl)-4-methyl-2-oxooxazolidin-3-yl)methyl)-4,4-dimethylcyclohex-1-enyl)-4-methoxyphenyl)cyclopropanecarbonitrile]",7.70
7,"COc1ccc(C2(C(N)=O)CC2)cc1C1=C(CN2C(=O)O[C@H](c3cc(C(F)(F)F)cc(C(F)(F)F)c3)[C@@H]2C)CC(C)(C)CC1 [Compound 190, 1-(3-(2-(((4S,5R)-5-(3,5-bis(trifluoromethyl)phenyl)-4-methyl-2-oxooxazolidin-3-yl)methyl)-4,4-dimethylcyclohex-1-enyl)-4-methoxyphenyl)cyclopropanecarboxamide]",8.00
8,"COc1cc(F)c(C(=O)C(F)(F)F)cc1C1=C(CN2C(=O)O[C@H](c3cc(C(F)(F)F)cc(C(F)(F)F)c3)[C@@H]2C)CC(C)(C)CC1 [Compound 191, (4S,5R)-5-(3,5-bis(trifluoromethyl)phenyl)-3-((2-(4-fluoro-2-methoxy-5-(2,2,2-trifluoroacetyl)phenyl)-5,5-dimethylcyclohex-1-enyl)methyl)-4-methyloxazolidin-2-one]",7.05
9,"COc1cc(F)c(C(=O)C2CC2)cc1C1=C(CN2C(=O)O[C@H](c3cc(C(F)(F)F)cc(C(F)(F)F)c3)[C@@H]2C)CC(C)(C)CC1 [Compound 192, (4S,5R)-5-(3,5-bis(trifluoromethyl)phenyl)-3-((2-(5-(cyclopropanecarbonyl)-4-fluoro-2-methoxyphenyl)-5,5-dimethylcyclohex-1-enyl)methyl)-4-methyloxazolidin-2-one]",7.22
10,"COc1ccc(C(F)(F)F)cc1C1=C(CN2C(=O)O[C@H](c3cc(C(F)(F)F)cc(C(F)(F)F)c3)[C@@H]2C)CC(C(F)(F)F)CC1 (stereo partly drawn) [Compound 193, (4S,5R)-5-(3,5-bis(trifluoromethyl)phenyl)-3-((2-(2-methoxy-5-(trifluoromethyl)phenyl)-5-(trifluoromethyl)cyclohex-1-enyl)methyl)-4-methyloxazolidin-2-one]",7.40
11,"COc1ccc(N)cc1C1=C(CN2C(=O)O[C@H](c3cc(C(F)(F)F)cc(C(F)(F)F)c3)[C@@H]2C)CC(C(F)(F)F)CC1 (stereo partly drawn) [Compound 195, (4S,5R)-3-((2-(5-amino-2-methoxyphenyl)-5-(trifluoromethyl)cyclohex-1-enyl)methyl)-5-(3,5-bis(trifluoromethyl)phenyl)-4-methyloxazolidin-2-one]",6.08
12,"COc1cc(C(F)(F)F)c(N(C)S(=O)(=O)C(F)(F)F)cc1C1=C(CN2C(=O)O[C@H](c3cc(C(F)(F)F)cc(C(F)(F)F)c3)[C@@H]2C)CC(C)(C)CC1 [Compound 209, N-(5-(2-(((4S,5R)-5-(3,5-bis(trifluoromethyl)phenyl)-4-methyl-2-oxooxazolidin-3-yl)methyl)-4,4-dimethylcyclohex-1-enyl)-4-methoxy-2-(trifluoromethyl)phenyl)trifluoro-N-methylmethanesulfonamide]",8.00
13,"COc1ccc(N(C)c2nc(C(F)(F)F)cs2)cc1C1=C(CN2C(=O)O[C@H](c3cc(C(F)(F)F)cc(C(F)(F)F)c3)[C@@H]2C)CC(C)(C)CC1 [Compound 212, (4S,5R)-5-(3,5-bis(trifluoromethyl)phenyl)-3-((2-(2-methoxy-5-(methyl(4-(trifluoromethyl)thiazol-2-yl)amino)phenyl)-5,5-dimethylcyclohex-1-enyl)methyl)-4-methyloxazolidin-2-one]",7.10

# Further molecules by rising pIC50, results first:
row,pIC50,Compound
1,6.31,"COc1ccc(NC(C)=O)cc1C1=C(CN2C(=O)O[C@H](c3cc(C(F)(F)F)cc(C(F)(F)F)c3)[C@@H]2C)CC(C(F)(F)F)CC1 (stereo partly drawn) [Compound 196, N-(3-(2-(((4S,5R)-5-(3,5-bis(trifluoromethyl)phenyl)-4-methyl-2-oxooxazolidin-3-yl)methyl)-4-(trifluoromethyl)cyclohex-1-enyl)-4-methoxyphenyl)acetamide]"
2,7.00,"COc1ccc([N+](=O)[O-])cc1C1=C(CN2C(=O)O[C@H](c3cc(C(F)(F)F)cc(C(F)(F)F)c3)[C@@H]2C)CC(C(F)(F)F)CC1 (stereo partly drawn) [Compound 194, (4S,5R)-5-(3,5-bis(trifluoromethyl)phenyl)-3-((2-(2-methoxy-5-nitrophenyl)-5-(trifluoromethyl)cyclohex-1-enyl)methyl)-4-methyloxazolidin-2-one]"
3,7.70,"COc1ccc(N(C)C(=O)CC(F)(F)F)cc1C1=C(CN2C(=O)O[C@H](c3cc(C(F)(F)F)cc(C(F)(F)F)c3)[C@@H]2C)CC(C)(C)CC1 [Compound 130, N-(3-(2-(((4S,5R)-5-(3,5-bis(trifluoromethyl)phenyl)-4-methyl-2-oxooxazolidin-3-yl)methyl)-4,4-dimethylcyclohex-1-enyl)-4-methoxyphenyl)-3,3,3-trifluoro-N-methylpropanamide]"
4,7.70,"COc1cc(F)c(C(C)=O)cc1C1=C(CN2C(=O)O[C@H](c3cc(C(F)(F)F)cc(C(F)(F)F)c3)[C@@H]2C)CC(C)(C)CC1 [Compound 184, (4S,5R)-3-((2-(5-acetyl-4-fluoro-2-methoxyphenyl)-5,5-dimethylcyclohex-1-enyl)methyl)-5-(3,5-bis(trifluoromethyl)phenyl)-4-methyloxazolidin-2-one]"
5,7.70,"COc1cc(F)c(N(C)C(C)=O)cc1C1=C(CN2C(=O)O[C@H](c3cc(C(F)(F)F)cc(C(F)(F)F)c3)[C@@H]2C)CC(C)(C)CC1 [Compound 215, N-(5-(2-(((4S,5R)-5-(3,5-bis(trifluoromethyl)phenyl)-4-methyl-2-oxooxazolidin-3-yl)methyl)-4,4-dimethylcyclohex-1-enyl)-2-fluoro-4-methoxyphenyl)-N-methylacetamide]"
6,8.10,"COc1cc(C(F)(F)F)c(N(C)C(C)=O)cc1C1=C(CN2C(=O)O[C@H](c3cc(C(F)(F)F)cc(C(F)(F)F)c3)[C@@H]2C)CC(C)(C)CC1 [Compound 210, N-(5-(2-(((4S,5R)-5-(3,5-bis(trifluoromethyl)phenyl)-4-methyl-2-oxooxazolidin-3-yl)methyl)-4,4-dimethylcyclohex-1-enyl)-4-methoxy-2-(trifluoromethyl)phenyl)-N-methylacetamide]"
